Consider 1 compound from US6391826B1, “Optically active uracil compounds” (Sumitomo Chemical Company, Limited, priority 1998, dated 2002).

In this experiment the test system is common cocklebur (Xanthium strumarium). The experiment is described as follows: Test Example 1: foliar treatment on upland fields. It counts as in vivo. Set-up: key: “0” means that there was no or little difference in the degree of germination or growth between the treated and the untreated tested plants at the time of examination; “5” means that the test plants died complete or their germination or growth was completely inhibited. The note with it: 1 g/ha active ingredient; foliar spray on 21-day plants, 1% Agri-Dex; examined after 21 days; index 0-5. The protocol: Foliar Treatment on Upland Fields
Plastic pots which have an area of (26.5×19)cm^2 and a depth of 7 cm were filled with upland soil, seeded with common cocklebur (Xanthium strumarium) and were given 21 days to grow in a greenhouse. Each of the test compounds was formulated into emulsifiable concentrates according to Formulation Example 2, which was diluted with a designated amount of water containing 1% Agri-Dex (adjuvant produced by Helena Chemical Company), and such was uniformly sprayed over the foliage of the test plants with a sprayer at a volume of 1000 liters per hectare. After the application, the test plants were grown in the greenhouse for 21 days, and the herbicidal activity was examined.

Regarding `COC(=O)[C@@H](C)Oc1cc(-n2c(=O)cc(C(F)(F)F)n(C)c2=O)c(F)cc1Cl` [Present Compound 1, methyl (2R)-2-[2-chloro-4-fluoro-5-[3-methyl-2,6-dioxo-4-(trifluoromethyl)-1,2,3,6-tetrahydropyrimidin-1-yl]phenoxy]propionate], the “Herbicidal Activity Common Cocklebur” value is reported as 5.
